The values below come from US20240050526A1, “CATH2 DERIVATIVES FOR STIMULATING INNATE IMMUNE MEMORY” (priority 2020, published 2024).

Square brackets hold non-standard residues; d marks the D form. Ends that are not written are not given here.

Test [1] concerns dTHP-1 cells. The test is described as follows: Innate immune training of dTHP-1 cells by cathelicidin peptides, cytokine ELISA after TLR agonist re-stimulation. It counts as cell-based, human. The protocol: THP-1 cells were cultured in Iscove Modified Dulbecco Media (IMDM, Gibco) containing Glutamax-I, sodium pyruvate, 10% fetal calf serum at 37° C. and 5% CO2. For differentiation to macrophage-like cells, THP-1 cells were grown in IMDM/FCS medium containing 8 of 100 nM PMA and seeded in 96 wells (5×10^4 cells/well), 24 wells (3×10^5 cells/well) or 6 wells plates (1×10^6 cells/well) during 48 h. Subsequently, dTHP-1 were washed with pre-warmed IMDM/FCS, left overnight to rest and primed during 1 to 24 h with 2-10 μM peptides of fresh IMDM/FCS medium, washed 3 times in medium. After 3 days rest cells were stimulated with various stimuli: S. minnesota LPS (10 ng/ml), E. coli LPS (10 or 50 ng/ml), Pam3CSK4 (1 μg/ml) or Pam2CSK4 (1 μg/ml). After 24 h supernatants were collected and stored at −20° C. For inhibition, dTHP-1 cells were pre-incubated for 1 h before priming and during priming with rapamycin (10 nM), AICAR (50 nM), metformin (0.3 mM), wortmannin (1 μM), ascorbate (50 μM), SB203580 (10 μM), PD98059 (10 μM), SP600125 (10 μM), EGCG (40 μM), anacardic acid (50 μM), curcumin (10 μM), garcinol (10 μM), Bay-11-7085 (10 μM), MTA (1 mM), MM-102 (25 μM), suramin (50 μM), KN-62 (3 μM), nystatin (10 μg/ml), and chlorpromazine (10 μM).
TNFα, IL-6, CXCL10 and CCL5 production were measured using ELISA (R&D systems) following instructions of the manufacturer.
Extrapolating from the trained immunity experiments with human monocytes, we examined if mature cathelicidin peptides could induce trained immunity in TH P-1 cells, a human monocyte cell line. TH P-1 cells were differentiated with 100 nM or 8 nM phorbol 12-myristate 13-acetate (PMA) during 48 h washed 3 times and, after overnight rest, primed with 2-10 μM of chicken cathelicidin 2 (CATH-2), its full D-analog DCATH-2 or human cathelicidin LL-37 for 24 h. Subsequently, dTHP-1 cells were washed 3 times and re-stimulated after a 3-day rest period with TLR agonists (24 h) (FIG. 1a). […] Priming with 5 μM of its full-D-amino acid analog DCATH-2 amplified 2- to 3-fold the TNFα and IL-6 production in response to LPS stimulation. A minor response was found for priming with 10 μM LL-37, which amplified IL-6 production 1.4-fold in 100 nM differentiated cells.
Background: ELISA stands for enzyme-linked immunosorbent assay.

Test [2] deals with Salmonella enteritidis 706. In words: Antibacterial activity (intracellular killing) of DCATH-2 primed dTHP-1 cells. It counts as cell-based, Salmonella enterica subsp. enterica serovar enteritidis. The note with it: 24 h DCATH-2 training; colonies after 24 h. The method, then:
Antibacterial activity was determined according to Tang et al.. dTHP-1 cells were seeded in 6 well plates and primed with DCATH-2 or medium as described. Log-phase culture of Salmonella enterica subsp. enterica serovar enteritidis 706 (Se706) was added to each well at a MOI of 1. After 2 h incubation at 37° C., cells were washed twice with warm DPBS and further incubated for 1 h incubation at 37° C. with IMDM/FCS medium containing 300 μg/ml colistin. After incubation, cells were washed 3 times in DPBS and the lysed with 1% triton X-100. Well contents were serially diluted in tryptone soy broth (Oxoid), plated on tryptone soy agar and counted after 24 h at 37° C.

For test [3], the system named is dTHP-1 cells. The test is described as follows: Metabolomics of DCATH-2 trained dTHP-1 cells. The test is classed as cell-based, human. The protocol: dTHP-1 cells were seeded (1×10^6 cells/well) in 6 wells plates and primed during 24 h with 5 μM DCATH-2 as described using medium as control. Cell supernatants, cell lysates and medium controls were collected before and after 24 h priming in the absence and presence of 10 nM rapamycin, after washing followed by 3 days rest and after subsequent 24 h LPS (E. coli O111:B4) stimulation. For sample collections, cells were washed once in ice-cold PBS, lysed with by adding 1 ml cold methanol/acetonitrile/water (2:2:1) lysis buffer, scraped and transferred in to vials. Cell supernatants and medium control samples (10 μl) were directly mixed with 200 μl lysis buffer. Samples were shaken for 10 min at 4° C. and centrifuged for 15 min at 18,000×g and 4° C. Supernatants were flash frozen in liquid nitrogen and stored at −80° C. for analysis. Liquid chromatography-mass spectrometry analysis was performed using an Exactive mass spectrometer (Thermo Scientific), coupled to a Dionex Ultimate 3000 auto sampler and pump (Thermo Scientific). The mass spectrometry operated in polarity-switching mode with spray voltages of 4.5 and −3.5 kV. Metabolites were separated using a Sequant ZIC-pHILIC column (2.1×150 mm, […], guard column 2.1×20 mm, […]; Merck) using a linear gradient of acetonitrile and eluent A 20 mM (NH4)2CO3, 0.1% NH40H in ULC/MS grade water (Biosolve BV, Valkenswaard, The Netherlands) and a flow rate of 150 μl/min. Metabolites were identified and peak intensities quantified using LCquan software (Thermo Scientific) on the basis of exact mass within 5 ppm and further validated by concordance with retention times of commercially available standards. Peak intensities were normalized on cell counts of parallel wells before and after LPS stimulation.

A further test deals with avian pathogenic E. coli. The note with it: prophylactic in ovo injection of chicken embryos; cited from earlier work.
The next test has as its system Salmonella enterica. Conditions: injected into the yolk of zebrafish embryos, intravenous infection; cited from earlier work.
Where [4] appears, read: 5 μM, 24 h priming, 3 days rest.
The mark [5] stands for this setting: after 24 h E. coli LPS stimulation.

In the case of “rfgrflrkirrfrpkvtitiqgsarf-NH2 ([dR][dF]G[dR][dF][dL][dR][dK][dI][dR][dR][dF][dR][dP][dK][dV][dT][dI][dT][dI][dQ]G[dS][dA][dR][dF]-NH2; N-terminus assumed; SMILES CC[C@@H](C)[C@@H](NC(=O)[C@@H](CCCCN)NC(=O)[C@@H](CCCNC(=N)N)NC(=O)[C@@H](CC(C)C)NC(=O)[C@@H](Cc1ccccc1)NC(=O)[C@@H](CCCNC(=N)N)NC(=O)CNC(=O)[C@@H](Cc1ccccc1)NC(=O)[C@H](N)CCCNC(=N)N)C(=O)N[C@H](CCCNC(=N)N)C(=O)N[C@H](CCCNC(=N)N)C(=O)N[C@H](Cc1ccccc1)C(=O)N[C@H](CCCNC(=N)N)C(=O)N1CCC[C@@H]1C(=O)N[C@H](CCCCN)C(=O)N[C@@H](C(=O)N[C@@H](C(=O)N[C@@H](C(=O)N[C@@H](C(=O)N[C@@H](C(=O)N[C@H](CCC(N)=O)C(=O)NCC(=O)N[C@H](CO)C(=O)N[C@H](C)C(=O)N[C@H](CCCNC(=N)N)C(=O)N[C@H](Cc1ccccc1)C(N)=O)[C@H](C)CC)[C@H](C)O)[C@H](C)CC)[C@H](C)O)C(C)C) [DCATH-2, full D-amino acid analog of CATH-2]”, the “TNFα and IL-6 production after re-stimulation with TLR2 and TLR4 ligands” value in the test with dTHP-1 cells [1] (5 μM, re-stimulation with E. coli O111:B4 LPS, Pam3CSK4 or Pam2CSK4) was “amplified”. In the test with dTHP-1 cells [1] (5 μM, re-stimulation with TLR2 and TLR4 agonists), the “production of CCL5 and CXCL10” value is listed as “not altered”. Further, in the test on dTHP-1 cells [1] (24 h priming (2.5-5 μM DCATH-2), 3 days rest, no re-stimulation), the “basal production levels of TNFα and IL-6” value is “not altered”. For the same substance, in the test with dTHP-1 cells [1] (TNFα amplification, re-stimulation with 1 μg/ml Pam3CSK4), the “priming time reaching highest level of training” value is listed as 24 h. The “inhibition of outgrowth of Salmonella enteritidis vs non-primed dTHP-1 cells” value in test [2] was found to be 78±11%. In the test on dTHP-1 cells [3] (setting [4]), the “TCA cycle and urea cycle” value is on record as “not significantly affected”; the “de novo pyrimidine synthesis” value is “increased”; the “glycolysis (metabolic intermediates)” value is on record as “increased”; the intracellular glucose concentrations result is “lower”. Also, in the test with dTHP-1 cells [3] (setting [4]), the intracellular lactate levels result is on record as “higher”; the “lactate secretion into the medium” value was “augmented”; the “levels of intracellular medium-chain and long-chain acylcarnitines” value is “dramatically increased”; the “usage of amino acids” value is recorded as “overall enhanced usage”. Moreover, the “TCA cycle, urea cycle or amino acid metabolism” value with dTHP-1 cells [3] (LPS stimulation of trained cells) is given as “did not affect”. For the same substance, in the test on dTHP-1 cells [3] (setting [5]), the “intracellular levels of medium-chain and long-chain acylcarnitines” value is listed as “remained elevated”; the “training induced metabolic shift during LPS stimulation” value is “maintained”. Besides, the “colibacilossis-associated mortality and morbidity” value in the test with avian pathogenic E. coli is “considerably reduced”. In addition, the “mortality after lethal dose of Salmonella enterica” value with Salmonella enterica is “delayed mortality”.
